Measured values taken from the NIST ThermoML archive (doi:10.1021/acs.jced.8b00725).
± gives the expanded uncertainty stated by the source.

Conditions: 100 kPa, Liquid, Vibrating tube method

Row | Structure (SMILES) | mass density (333.15 K) | mass density (338.15 K) | mass density (343.15 K) | mass density (348.15 K) | mass density (353.15 K) | mass density (293.15 K) | mass density (298.15 K) | mass density (303.15 K) | mass density (308.15 K) | mass density (313.15 K) | mass density (318.15 K) | mass density (323.15 K) | mass density (328.15 K)
1 | CC[NH2+]CC.CS(=O)(=O)[O-] [diethylammonium methanesulfonate] | 1117.5 ± 8.8 kg/m3 | 1114.27 ± 8.7 kg/m3 | 1111.06 ± 8.7 kg/m3 | 1107.86 ± 8.6 kg/m3 | 1104.68 ± 8.5 kg/m3 |  |  |  |  |  |  |  | 
2 | CCC(=O)[O-].OCC[NH+](CCO)CCO [triethanolammonium propanoate] | 1114.84 ± 6.7 kg/m3 | 1111.68 ± 6.7 kg/m3 | 1108.5 ± 6.7 kg/m3 | 1105.29 ± 6.6 kg/m3 | 1102.06 ± 6.6 kg/m3 | 1139.53 ± 7 kg/m3 | 1136.51 ± 7 kg/m3 | 1133.47 ± 7 kg/m3 | 1130.43 ± 6.9 kg/m3 | 1127.31 ± 6.9 kg/m3 | 1124.25 ± 6.9 kg/m3 | 1121.15 ± 6.8 kg/m3 | 1118.01 ± 6.8 kg/m3
3 | CC[NH+](CC)CC.O=S(=O)([O-])C(F)(F)F [triethylammonium trifluoromethanesulfonate] | 1236.53 ± 11 kg/m3 | 1232.58 ± 11 kg/m3 | 1228.65 ± 11 kg/m3 | 1224.73 ± 11 kg/m3 | 1220.84 ± 10 kg/m3 | 1268.63 ± 11 kg/m3 | 1264.56 ± 11 kg/m3 | 1260.51 ± 11 kg/m3 | 1256.47 ± 11 kg/m3 | 1252.45 ± 11 kg/m3 | 1248.45 ± 11 kg/m3 | 1244.46 ± 11 kg/m3 | 1240.48 ± 11 kg/m3
4 | O=S(=O)(O)O.OCCN(CCO)CCO [triethanolammonium hydrogen sulfate] | 1416.33 ± 14 kg/m3 | 1413.85 ± 14 kg/m3 | 1411.31 ± 14 kg/m3 | 1408.87 ± 14 kg/m3 | 1406.37 ± 14 kg/m3 |  |  |  |  |  |  | 1421.3 ± 14 kg/m3 | 1418.8 ± 14 kg/m3
5 | CCN(CC)CC.O=C(O)c1ccccc1O [triethylammonium salicylate] | 1073.13 ± 8.1 kg/m3 | 1069.93 ± 8 kg/m3 | 1066.73 ± 8 kg/m3 | 1063.54 ± 7.9 kg/m3 | 1060.36 ± 7.9 kg/m3 | 1099.07 ± 8.5 kg/m3 | 1095.79 ± 8.4 kg/m3 | 1092.57 ± 8.3 kg/m3 | 1089.33 ± 8.3 kg/m3 | 1086.08 ± 8.2 kg/m3 | 1082.83 ± 8.2 kg/m3 | 1079.58 ± 8.2 kg/m3 | 1076.35 ± 8.1 kg/m3
6 | CC[NH+](CC)CC.O=C([O-])c1ccccc1 [triethylammonium benzoate] | 1074.3 ± 8.1 kg/m3 | 1070.92 ± 8 kg/m3 | 1067.55 ± 8 kg/m3 | 1064.18 ± 7.9 kg/m3 | 1060.82 ± 7.9 kg/m3 | 1101.47 ± 8.5 kg/m3 | 1098.02 ± 8.4 kg/m3 | 1094.65 ± 8.4 kg/m3 | 1091.27 ± 8.3 kg/m3 | 1087.87 ± 8.3 kg/m3 | 1084.47 ± 8.2 kg/m3 | 1081.07 ± 8.2 kg/m3 | 1077.68 ± 8.1 kg/m3
7 | CC(=O)O.CCN(CC)CC [triethylammonium acetate] | 983.14 ± 6.7 kg/m3 | 979.32 ± 6.7 kg/m3 | 975.48 ± 6.6 kg/m3 | 971.62 ± 6.6 kg/m3 | 967.74 ± 6.5 kg/m3 | 1013.29 ± 7.2 kg/m3 | 1009.63 ± 7.1 kg/m3 | 1005.87 ± 7 kg/m3 | 1002.1 ± 7 kg/m3 | 998.33 ± 6.9 kg/m3 | 994.55 ± 6.9 kg/m3 | 990.75 ± 6.8 kg/m3 | 986.96 ± 6.8 kg/m3
8 | CC[NH+](CC)CC.CS(=O)(=O)[O-] [triethylammonium methanesulfonate] | 1093.99 ± 8.4 kg/m3 | 1090.72 ± 8.3 kg/m3 | 1087.47 ± 8.3 kg/m3 | 1084.22 ± 8.2 kg/m3 | 1080.98 ± 8.2 kg/m3 | 1120.47 ± 8.8 kg/m3 | 1117.11 ± 8.7 kg/m3 | 1113.77 ± 8.7 kg/m3 | 1110.44 ± 8.6 kg/m3 | 1107.13 ± 8.6 kg/m3 | 1103.83 ± 8.5 kg/m3 | 1100.54 ± 8.5 kg/m3 | 1097.26 ± 8.4 kg/m3
9 | CC[NH2+]CC.O=C([O-])C(F)(F)F [diethylammonium trifluoroacetate] | 1150.69 ± 9.3 kg/m3 | 1146.65 ± 9.2 kg/m3 | 1142.62 ± 9.2 kg/m3 | 1138.55 ± 9.1 kg/m3 | 1134.5 ± 9 kg/m3 |  |  |  |  |  |  | 1158.82 ± 9.4 kg/m3 | 1154.74 ± 9.3 kg/m3
10 | CC[NH2+]CC.O=S(=O)([O-])O [diethylammonium hydrogen sulfate] | 1357.53 ± 13 kg/m3 | 1354.45 ± 13 kg/m3 | 1351.38 ± 13 kg/m3 | 1348.31 ± 13 kg/m3 | 1345.25 ± 13 kg/m3 | 1382.76 ± 13 kg/m3 | 1379.53 ± 13 kg/m3 | 1376.33 ± 13 kg/m3 | 1373.15 ± 13 kg/m3 | 1369.99 ± 13 kg/m3 | 1366.85 ± 13 kg/m3 | 1363.73 ± 13 kg/m3 | 1360.62 ± 13 kg/m3
11 | CC[NH+](C)C.O=C([O-])C(F)(F)F [N,N-dimethyl-N-ethylammonium trifluoroacetate] | 1178.33 ± 9.8 kg/m3 | 1174.09 ± 9.7 kg/m3 | 1169.9 ± 9.6 kg/m3 | 1165.69 ± 9.5 kg/m3 | 1161.51 ± 9.5 kg/m3 | 1212.41 ± 10 kg/m3 | 1208.11 ± 10 kg/m3 | 1203.82 ± 10 kg/m3 | 1199.56 ± 10 kg/m3 | 1195.28 ± 10 kg/m3 | 1191.03 ± 10 kg/m3 | 1186.78 ± 9.9 kg/m3 | 1182.54 ± 9.8 kg/m3
12 | CCN(CC)CC.O=P(O)(O)O [triethylammonium dihydrogen phosphate] |  | 1329.48 ± 12 kg/m3 | 1327.08 ± 12 kg/m3 | 1324.69 ± 12 kg/m3 | 1322.31 ± 12 kg/m3 |  |  |  |  |  |  |  | 
13 | CC[NH+](CC)CC.O=C([O-])C(F)(F)F [triethylammonium trifluoroacetate] | 1132.82 ± 9 kg/m3 | 1128.74 ± 8.9 kg/m3 | 1124.67 ± 8.9 kg/m3 | 1120.6 ± 8.8 kg/m3 | 1116.54 ± 8.7 kg/m3 | 1165.69 ± 9.5 kg/m3 | 1161.57 ± 9.5 kg/m3 | 1157.44 ± 9.4 kg/m3 | 1153.32 ± 9.3 kg/m3 | 1149.21 ± 9.3 kg/m3 | 1145.1 ± 9.2 kg/m3 | 1141 ± 9.1 kg/m3 | 1136.91 ± 9.1 kg/m3
14 | O=C(O)c1ccccc1O.OCCN(CCO)CCO [triethanolammonium salicylate] | 1245.42 ± 11 kg/m3 | 1242.4 ± 11 kg/m3 | 1239.42 ± 11 kg/m3 | 1236.44 ± 11 kg/m3 | 1233.42 ± 11 kg/m3 |  |  |  |  |  |  |  | 1248.43 ± 11 kg/m3
